This is an account of results in patent US20110212108A1, “NEUREGULIN/ERBB SIGNALING AND INTEGRIN” (THE REGENTS OF THE UNIVERSITY OF CALIFORNIA, priority 2008, published 2011).

One assay concerns Human M21 melanoma cells. The assay is described as follows: M21 cell proliferation, MTS assay. Type of assay: cell-based. The conditions noted are these: for Induction of proliferation of M21 melanoma cells: serum-starved overnight, cultured 48 h, MTS. The procedure: FIG. 8. […] The mutant NRG1 (175-222) suppressed proliferation induced by wt NRG1 (175-222) (dominant-negative effect). Human M21 melanoma cells were serum-starved overnight and cultured 48 h with wt or mutant GST-NRG1 (175-222). Cell proliferation was measured by using MTS assays. Data are shown as means+/−SE (n=3). […] For 3KE+WT, 10 ng/ml wt NRG1 (175-222) and mutant NRG1 (175-222) were added at the indicated concentrations. […] P<0.0001 between wt and 3KE, p=0.0001 between wt and 3KE+wt by 2-way ANOVA. There is no statistical significance between 3KE and 3KE+wt (p=0.58).
Cell proliferation: cells were starved by culturing DMEM with low-level FCS (e.g., 0.4%) overnight and then treated with the wt or mutant NRG1 (175-222) (up to 100 ng/ml). The cells were harvested in 15 min to 6 h after stimulation and cell lysates analyzed by western blotting with antibodies specific to signaling molecules. Alternatively, cells were cultured for 24-48 h after stimulation for testing proliferation or cell viability by MTS assays. Statistical analysis and calculation of kinetic constants were performed using Prism software (Graphpad).
(In general: Tetrazolium assays rely on reduction of a dye to a coloured formazan, in cell work by metabolically active cells.)

The test system of assay [1] is Met-1 tumor (a highly metastatic mouse breast cancer). Put plainly: Met-1 tumor transplanted subcutaneously into nude mice. Type of assay: in vivo. The conditions noted are these: 100 ng/mouse/day intraperitoneally, 5 days a week; P<0.0001. The method, then:
FIG. 15. 3KE (175-222) mutant suppressed tumorigenesis in a xenograft experiment with highly metastatic Met-1 tumor. Met-1 tumor (a highly metastatic mouse breast cancer) (4×4×4 mm) was transplanted subcutaneously into nude mice. The 3KE (175-222) mutant or vehicle was intraperitoneally injected ([…] 5 days a week) to mice, starting day 0. Data are shown as means+/−SEM. P<0.0001 by 2-way ANOVA (n=2 for control and n=3 for 3KE).
It was tested whether intraperitoneal injection of 3KE (175-222) can affect tumor growth in vivo. The Met-1 line (a highly metastatic mouse mammary tumor) (Guy et al. 1992; Cheung et al. 1997) has the polyoma virus middle T (PyV-MT) transgene, and metastasize with 100% efficiency. Met-1 (4mm×4 mm×4 mm) was transplanted to nude mice and 3KE (175-222) (100 ng/mouse/day 5 days a week) was intraperitoneally injected.

In assay [2] the test system is mammary intraepithelial neoplasia-outgrowth (MIN-O). Put plainly: Outgrowth of precancer (MIN-O) in FVB mice. Type of assay: in vivo. Particulars: 200 ng/day/mouse intraperitoneally, 5 days a week for 4 weeks; P=0.0355. The method, then:
FIG. 16. Inhibitory effect of daily intraperitoneal injection of 3KE (175-222) on the outgrowth of precancer (MIN-O) in FVB mice. MIN-O was transplanted into fat pads of FVB mice (two per mice) and 3KE (175-222) (200 ng/mouse/day) was injected 5 days a week for 4 weeks starting day 0. After 28 days, mice were sacrificed and the dimensions of tumors were measured. Since MIN-O grows as a thin layer, the two-dimensional size was calculated and the thickness was ignored. P=0.0355 by ANOVA between control and 3KE (175-222).
To study the effect of 3KE (175-222) on the premalignant cancer, transplantable mammary intraepithelial neoplasia-outgrowth (MIN-O) tissue lines, which were derived from hyperplastic mammary lesions in young Tg(MMTV-PyV-mT) females (Maglione et al. 2004), were used. The resulting lesions mimic the biological behavior, molecular biology, and histopathology of human ductal carcinoma in situ (Maglione et al. 2004). One mm^3 pieces of the 8w-BMINO tissues (Maglione et al. 2004) were transplanted to gland-cleared no. 4 mammary fat pads of 3-week-old FVB females bilaterally.

Another assay has as its system HaCAT keratinocytes. Put plainly: ERK1/2 activation in HaCAT keratinocytes, Western blotting. Type of assay: cell-based. Particulars: serum-starved; background Erk1/2 level high. The procedure: FIG. 18. […] HaCAT keratinocytes were serum-starved and incubated with wt NRG1 (175-222) or 3KE (175-222). The levels of Erk1/2 activation were determined by Western blotting.
In general terms: A western blot detects proteins with antibodies after separation by electrophoresis.

The next assay addresses T1, αvβ3-ErbB3 complex (Homo sapiens, UniProt P05106+P06756+P21860).
T1 construct: endogenous in cells; host or cells: MCF-7
The assay is described as follows: Co-immunoprecipitation of integrin αvβ3 and ErbB3 in MCF-7 cells. The format is cell-based. Particulars: for Co-precipitation of integrin β3 with ErbB3 in MCF-7 cells: 5 nM, 5-30 min. The procedure: FIG. 21. WT NRG1α (175-241) induced co-precipitation of integrin αvβ3 and ErbB3, while 3KE (175-241) is defective in this function. a) MCF-7 cells were serum-starved overnight and stimulated with WT or 3KE NRG1α (175-241) at indicated time points. In the present invention, 1 mg protein of cell lysate was used for immuno-precipitation of the αvβ3-ErbB3 complex with anti-ErbB3 antibody Immunoprecipitated materials were analyzed by Western blotting using antibodies specific to ErbB3, phosphorylated ErbB3, or integrin β3. The levels of ErbB3 phosphorylation were less with the 3KE mutant (175-241). Integrin αvβ3 was co-immuno-precipitated with the ErbB3 in 5-30 min upon stimulation with WT NRG1α (175-241), while the 3KE (175-241) mutant was defective in this function. b) Levels of β3 coprecipitation. In the present invention, the levels of β3 co-precipitation from digital images was quantified using ImageJ. The data are normalized with time 0 as 1 from two independent experiments.
Five minutes to 3 h after treatment with 5 nM WT or 3KE mutant NRG1α (175-241), MCF-7 cells were washed with ice-cold PBS and lysed with lysis buffer. The cell lysate was incubated with anti-ErbB3 overnight at 4° C. The immune complex was recovered by incubating with protein A Sepharose (GE Healthcare) for 1 hour at 4° C. and washed three times with wash buffer (20 mM HEPES (pH 7.4), 100 mM NaCl, 10% Glycerol, 0.5% NP-40, 1 mM MgCl2, 5 mM EDTA, 0.5% Triton X-100, 1 mM phenylmethylsulfonyl fluoride, 20 mM NaF, 1 mM Na3VO4, protease inhibitor cocktail (Sigma-Aldrich)). The immunoprecipitates were analyzed by western blotting with antibodies specific to integrin β3.

Where a chain is given by its changes, count along the chain named.

T1 sequence (P21860 20-1342): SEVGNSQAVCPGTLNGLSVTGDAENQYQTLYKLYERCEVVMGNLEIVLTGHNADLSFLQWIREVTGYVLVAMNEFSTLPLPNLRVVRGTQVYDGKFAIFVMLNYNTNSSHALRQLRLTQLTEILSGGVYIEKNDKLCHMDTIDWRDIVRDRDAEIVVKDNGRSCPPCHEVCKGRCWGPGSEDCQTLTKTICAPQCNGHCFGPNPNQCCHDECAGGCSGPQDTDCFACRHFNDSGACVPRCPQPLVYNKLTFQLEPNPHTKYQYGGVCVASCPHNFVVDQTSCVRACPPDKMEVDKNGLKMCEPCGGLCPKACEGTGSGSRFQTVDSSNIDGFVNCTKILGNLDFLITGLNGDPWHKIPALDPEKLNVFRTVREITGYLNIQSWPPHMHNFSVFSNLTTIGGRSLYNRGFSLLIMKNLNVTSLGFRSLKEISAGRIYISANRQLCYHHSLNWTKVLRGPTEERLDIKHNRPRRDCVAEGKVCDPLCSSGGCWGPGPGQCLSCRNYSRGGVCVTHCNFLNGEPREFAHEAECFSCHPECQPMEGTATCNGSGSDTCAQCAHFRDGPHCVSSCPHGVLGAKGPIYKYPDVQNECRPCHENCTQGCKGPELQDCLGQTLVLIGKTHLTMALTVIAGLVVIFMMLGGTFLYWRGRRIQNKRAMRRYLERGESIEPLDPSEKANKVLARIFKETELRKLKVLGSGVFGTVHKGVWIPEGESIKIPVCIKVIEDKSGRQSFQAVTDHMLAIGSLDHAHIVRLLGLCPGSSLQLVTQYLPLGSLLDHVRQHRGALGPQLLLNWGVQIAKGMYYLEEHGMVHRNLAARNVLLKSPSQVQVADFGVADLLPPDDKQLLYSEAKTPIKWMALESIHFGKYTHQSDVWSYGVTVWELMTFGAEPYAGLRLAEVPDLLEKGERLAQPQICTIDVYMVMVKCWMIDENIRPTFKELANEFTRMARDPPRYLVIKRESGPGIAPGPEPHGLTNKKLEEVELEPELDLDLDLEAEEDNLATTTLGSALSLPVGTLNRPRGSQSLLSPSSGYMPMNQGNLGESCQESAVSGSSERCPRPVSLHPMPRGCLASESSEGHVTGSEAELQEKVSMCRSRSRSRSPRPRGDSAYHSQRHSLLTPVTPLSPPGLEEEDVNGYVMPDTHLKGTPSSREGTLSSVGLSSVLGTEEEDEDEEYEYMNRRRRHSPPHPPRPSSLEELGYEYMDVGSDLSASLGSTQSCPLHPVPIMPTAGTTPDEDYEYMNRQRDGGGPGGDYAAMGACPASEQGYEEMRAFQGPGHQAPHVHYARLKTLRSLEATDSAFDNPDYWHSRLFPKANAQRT
T1 sequence (P06756 31-1048): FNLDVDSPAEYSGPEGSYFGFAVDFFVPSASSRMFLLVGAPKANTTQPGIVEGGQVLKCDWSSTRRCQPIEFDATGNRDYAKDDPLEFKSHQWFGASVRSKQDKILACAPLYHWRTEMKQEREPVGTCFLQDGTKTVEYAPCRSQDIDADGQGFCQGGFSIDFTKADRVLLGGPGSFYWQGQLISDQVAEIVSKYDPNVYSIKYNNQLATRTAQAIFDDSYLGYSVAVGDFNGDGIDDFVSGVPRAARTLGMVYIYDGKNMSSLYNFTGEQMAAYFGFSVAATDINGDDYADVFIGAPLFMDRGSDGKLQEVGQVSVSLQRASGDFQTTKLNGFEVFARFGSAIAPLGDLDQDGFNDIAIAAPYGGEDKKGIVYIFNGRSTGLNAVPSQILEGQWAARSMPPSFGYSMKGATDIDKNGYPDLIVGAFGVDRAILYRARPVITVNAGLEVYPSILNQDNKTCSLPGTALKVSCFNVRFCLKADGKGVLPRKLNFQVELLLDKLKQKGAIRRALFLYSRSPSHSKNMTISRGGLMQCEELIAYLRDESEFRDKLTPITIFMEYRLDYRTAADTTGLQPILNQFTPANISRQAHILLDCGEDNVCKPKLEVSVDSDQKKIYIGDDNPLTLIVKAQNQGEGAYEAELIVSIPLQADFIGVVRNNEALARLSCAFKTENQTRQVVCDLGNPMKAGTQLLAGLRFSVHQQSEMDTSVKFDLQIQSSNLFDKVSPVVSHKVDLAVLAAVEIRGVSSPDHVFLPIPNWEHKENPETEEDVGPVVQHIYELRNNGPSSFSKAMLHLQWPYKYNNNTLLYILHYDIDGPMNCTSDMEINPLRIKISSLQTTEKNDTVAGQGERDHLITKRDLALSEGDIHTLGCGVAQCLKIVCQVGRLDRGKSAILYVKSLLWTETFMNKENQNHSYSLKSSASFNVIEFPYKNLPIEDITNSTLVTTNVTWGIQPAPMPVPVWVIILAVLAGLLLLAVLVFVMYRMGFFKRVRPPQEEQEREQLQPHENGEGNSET
T1 sequence (P05106 27-788): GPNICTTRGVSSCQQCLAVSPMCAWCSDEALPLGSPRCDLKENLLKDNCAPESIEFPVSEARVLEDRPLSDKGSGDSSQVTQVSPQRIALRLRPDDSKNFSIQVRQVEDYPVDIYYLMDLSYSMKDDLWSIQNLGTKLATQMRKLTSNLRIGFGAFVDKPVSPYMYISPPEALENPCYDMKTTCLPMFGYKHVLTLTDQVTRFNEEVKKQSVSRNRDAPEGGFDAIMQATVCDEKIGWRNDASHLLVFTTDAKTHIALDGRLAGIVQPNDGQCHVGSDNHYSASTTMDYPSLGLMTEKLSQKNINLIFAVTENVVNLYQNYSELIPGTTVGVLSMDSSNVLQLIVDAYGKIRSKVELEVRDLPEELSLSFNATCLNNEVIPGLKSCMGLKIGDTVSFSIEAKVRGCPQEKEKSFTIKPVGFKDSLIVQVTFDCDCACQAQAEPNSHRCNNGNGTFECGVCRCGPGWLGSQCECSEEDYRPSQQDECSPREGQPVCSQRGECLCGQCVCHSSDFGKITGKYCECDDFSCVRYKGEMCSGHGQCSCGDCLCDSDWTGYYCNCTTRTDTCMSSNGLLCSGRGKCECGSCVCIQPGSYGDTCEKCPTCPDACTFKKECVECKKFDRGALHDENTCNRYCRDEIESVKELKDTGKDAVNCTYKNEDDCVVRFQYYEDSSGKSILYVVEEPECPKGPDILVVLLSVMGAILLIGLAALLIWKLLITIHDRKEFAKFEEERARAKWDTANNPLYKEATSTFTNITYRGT

For “3KE (175-222): NRG1 (175-222) with Lys181/Lys185/Lys187 mutated to Glu; GTSHLVECAEEEETFCVNGGECFMVKDLSNPSRYLCKCQPGFTGARCT (SEQ ID NO:11) (integrin-binding site within human neuregulin, 3KE mutant, short version)”, the “Suppression of proliferation induced by wt NRG1 (175-222) in M21 cells” value in the assay with Human M21 melanoma cells (added together with 10 ng/ml wt NRG1 (175-222)) is “suppressed the proliferation induced by wt NRG1 (175-222)”. In addition, the “Induction of proliferation of M21 melanoma cells” value in the assay with Human M21 melanoma cells is “did not induce proliferation”. The “Tumor growth of Met-1 in nude mice” value in assay [1] is listed as “markedly suppressed tumor growth”. In assay [2], the “Outgrowth of MIN-O in FVB mice” value is recorded as “effectively suppressed the outgrowth of MIN-O tumors”. In the assay on HaCAT keratinocytes, the “ERK1/2 activation in HaCAT cells” value was “suppressed levels of ERK1/2 activation”.

Consider “wt NRG1 (175-222): wild type human neuregulin 1 fragment, EGF-like domain, residues 175-222 of SEQ ID NO:4 (SEQ ID NO:3) (GTSHLVKCAEKEKTFCVNGGECFMVKDLSNPSRYLCKCQPGFTGARCT; integrin-binding site within human neuregulin 1 EGF-like region and portion of alpha domain, residues 175-222 of human neuregulin 1 alpha) [reference compound]”, for which, in the assay on Human M21 melanoma cells, the “Induction of proliferation of M21 melanoma cells” value was “did”.

B1: WT NRG1α (175-241): wild type human neuregulin 1 fragment, residues 175-241 of SEQ ID NO:4 (SEQ ID NO:5), entire EGF-like motif and α domain (protein)
chain: GTSHLVKCAEKEKTFCVNGGECFMVKDLSNPSRYLCKCQPGFTGARCTENVPMKVQNQEKAEELYQK
modifications: integrin-binding site within human neuregulin, residues 175-241of human neuregulin 1alpha, long version
Regarding B1, the “Co-precipitation of integrin β3 with ErbB3 in MCF-7 cells” value in the assay with αvβ3-ErbB3 complex is given as “increased the amount of integrin β3 protein that co-precipitates with ErbB3”.

B2: 3KE (175-241): NRG1α (175-241) with Lys181/Lys185/Lys187 mutated to Glu, SEQ ID NO:6 (3KE, long version) (protein)
chain: B1 chain with K7E, K11E, K13E
modifications: integrin-binding site within human neuregulin, residues 175-241of human neuregulin 1alpha, long version, 3KE mutant
As to B2, in the assay with αvβ3-ErbB3 complex, the “Co-precipitation of integrin β3 with ErbB3 in MCF-7 cells” value is “did not”. In addition, the “Levels of ErbB3 phosphorylation in anti-ErbB3 immunoprecipitates of MCF-7 cells” value in the assay with αvβ3-ErbB3 complex (compared with WT NRG1α (175-241)) is reported as “less”.
